Data taken from patent US4401660A, “Ester derivatives of 5-O-mycaminosyl tylonolide and method of using same” (Eli Lilly and Company, priority 1981, dated 1983).
Where two headings read alike, the source gives them in different places.

Experiments:
Pasteurella multocida = experiment: Treatment of Pasteurella infections in chicks (Table V); type: in vivo, one-day-old chicks; settings: Pasteurella multocida, sc, 4 h; 30 mg/kg by subcutaneous injection one and four hours post challenge; read-out: Deaths in Treated Chicks/Number Treated (converted)
Summary of the method: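 Dosing was 30 mg/kg by subcutaneous injection, one and four hours after challenge. Day-old chicks received 0.1 ml of a 10^-3 dilution of a 20-hour tryptose broth culture of avian P. multocida subcutaneously. Nonmedicated infected chicks served as controls, ten per group.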

[1] = test system: Streptococcus pyogenes C203; experiment: ED50 in mice with experimental infections (Table IV); type: in vivo; settings: Streptococcus pyogenes, doses given 1 and 4 hours postinfection
Summary of the method: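 Read-out is ED50, the mg/kg dose protecting half of infected mice; values refer to each of two doses, given 1 and 4 hours after infection.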

[2] = test system: Pasteurella haemolytica 23C; experiment: MIC, broth-dilution microtiter test (Table III); type: cell-based; parameters: unit not given here
Description: (§1) The MIC's in Table II were determined by standard agar-dilution assays. The MIC's in Table III were obtained using a conventional broth-dilution microtiter test.

[3] = test system: Pasteurella multocida 68C; experiment: MIC, broth-dilution microtiter test (Table III); type: cell-based; parameters: unit not given here
Description: as §1

Staphylococcus aureus = experiment: MIC, broth-dilution microtiter test (Table III); type: cell-based; parameters: unit not given here
Description: as §1

[4] = test system: Pasteurella haemolytica 41D; experiment: MIC, broth-dilution microtiter test (Table III); type: cell-based; parameters: unit not given here
Description: as §1

[5] = test system: Pasteurella haemolytica 22C; experiment: MIC, broth-dilution microtiter test (Table III); type: cell-based; parameters: unit not given here
Description: as §1

[6] = test system: Pasteurella multocida 17E; experiment: MIC, broth-dilution microtiter test (Table III); type: cell-based; parameters: unit not given here; settings: bovine isolate
Description: as §1

Mycoplasma synoviae = experiment: MIC, broth-dilution microtiter test (Table III); type: cell-based; parameters: unit not given here
Description: as §1

[7] = test system: Pasteurella multocida 22A; experiment: MIC, broth-dilution microtiter test (Table III); type: cell-based; parameters: unit not given here
Description: as §1

Mycoplasma gallisepticum = experiment: MIC, broth-dilution microtiter test (Table III); type: cell-based; parameters: unit not given here
Description: as §1

[8] = test system: Pasteurella multocida 40G; experiment: MIC, broth-dilution microtiter test (Table III); type: cell-based; parameters: unit not given here
Description: as §1

[9] = test system: Pasteurella multocida 60A; experiment: MIC, broth-dilution microtiter test (Table III); type: cell-based; parameters: unit not given here; settings: avian isolate
Description: as §1

Streptococcus sp. 80 = experiment: MIC, broth-dilution microtiter test (Table III); type: cell-based; parameters: unit not given here
Description: as §1

Mycoplasma hyorhinis = experiment: MIC, broth-dilution microtiter test (Table III); type: cell-based; parameters: unit not given here
Description: as §1

[10] = test system: Streptococcus Group D X66; experiment: MIC, standard agar-dilution assay (Table II); type: cell-based; parameters: unit not given here
Description: as §1

[11] = test system: Haemophilus influenzae R252; experiment: MIC, standard agar-dilution assay (Table II); type: cell-based; parameters: unit not given here; settings: Haemophilus influenzae R252, ampicillin-resistant strain
Description: as §1

[12] = test system: Haemophilus influenzae Holt; experiment: MIC, standard agar-dilution assay (Table II); type: cell-based; parameters: unit not given here; settings: ampicillin-sensitive strain
Description: as §1

[13] = test system: Staphylococcus aureus X400; experiment: MIC, standard agar-dilution assay (Table II); type: cell-based; parameters: unit not given here; settings: Staphylococcus aureus X400, methicillin-resistant strain
Description: as §1

[14] = test system: Staphylococcus aureus S13E; experiment: MIC, standard agar-dilution assay (Table II); type: cell-based; parameters: unit not given here
Description: as §1

[15] = test system: Streptococcus pneumoniae Park I; experiment: MIC, standard agar-dilution assay (Table II); type: cell-based; parameters: unit not given here
Description: as §1

[16] = test system: Streptococcus pyogenes C203; experiment: MIC, standard agar-dilution assay (Table II); type: cell-based; parameters: unit not given here
Description: as §1

[17] = test system: Streptococcus Group D 9960; experiment: MIC, standard agar-dilution assay (Table II); type: cell-based; parameters: unit not given here
Description: as §1

[18] = test system: Staphylococcus epidermidis EPI1; experiment: MIC, standard agar-dilution assay (Table II); type: cell-based; parameters: unit not given here
Description: as §1

[19] = test system: Staphylococcus epidermidis EPI2; experiment: MIC, standard agar-dilution assay (Table II); type: cell-based; parameters: unit not given here
Description: as §1

[20] = test system: Staphylococcus aureus V41; experiment: MIC, standard agar-dilution assay (Table II); type: cell-based; parameters: unit not given here; settings: Staphylococcus aureus V41, penicillin-resistant strain
Description: as §1

[21] = test system: Staphylococcus aureus X1.1; experiment: MIC, standard agar-dilution assay (Table II); type: cell-based; parameters: unit not given here
Description: as §1

[22] = C203, oral, read-out: ED50, Oral
[23] = C203, sc, subcutaneous, read-out: ED50, Subcutaneous

Row | SMILES | mortality at 30 mg/kg (Pasteurella multocida) [%] | ED50 [1, 22] [mg/kg] | ED50 [1, 23] [mg/kg] | minimal inhibitory concentration (MIC) [2] | minimal inhibitory concentration (MIC) [3] | minimal inhibitory concentration (MIC) (Staphylococcus aureus) | minimal inhibitory concentration (MIC) [4] | minimal inhibitory concentration (MIC) [5] | minimal inhibitory concentration (MIC) [6] | minimal inhibitory concentration (MIC) (Mycoplasma synoviae) | minimal inhibitory concentration (MIC) [7] | minimal inhibitory concentration (MIC) (Mycoplasma gallisepticum) | minimal inhibitory concentration (MIC) [8] | minimal inhibitory concentration (MIC) [9] | minimal inhibitory concentration (MIC) (Streptococcus sp. 80) | minimal inhibitory concentration (MIC) (Mycoplasma hyorhinis) | minimal inhibitory concentration (MIC) [10] | minimal inhibitory concentration (MIC) [11] | minimal inhibitory concentration (MIC) [12] | minimal inhibitory concentration (MIC) [13] | further results
1 | CCC1OC(=O)CC(O)C(C)C(OC2OC(C)C(O)C(N(C)C)C2O)C(CC=O)CC(C)C(=O)C=CC(C)=CC1COC(=O)C(C)(C)C (stereo not shown) [Compound 68] | 0 | > 100 | 3.8 | 3.12 | 1.56 | 1.56 | 6.25 | 6.25 | 3.12 | < 0.048 | 3.12 | 0.097 | 3.12 | 3.12 | < 0.78 | 0.097 | 0.25 | 2 | 1 | 0.25 | minimal inhibitory concentration (MIC) [14]: 0.25; minimal inhibitory concentration (MIC) [15]: 0.06; minimal inhibitory concentration (MIC) [16]: 0.125; minimal inhibitory concentration (MIC) [17]: 0.25; minimal inhibitory concentration (MIC) [18]: 0.25; minimal inhibitory concentration (MIC) [19]: 0.25; minimal inhibitory concentration (MIC) [20]: 0.25; minimal inhibitory concentration (MIC) [21]: 0.25
2 | CCC1OC(=O)CC(O)C(C)C(OC2OC(C)C(O)C(N(C)C)C2O)C(CC=O)CC(C)C(=O)C=CC(C)=CC1COC(=O)CCCC(=O)OC (stereo not shown) [Compound 72] | 50 | 87 | 2.3 | 6.25 | 3.12 | 1.56 | 12.5 | 12.5 | 6.25 | 0.78 | 3.12 | 0.195 | 3.12 | 3.12 | 1.56 | 25 | 0.25 | 1 | 2 | 0.25 | minimal inhibitory concentration (MIC) [14]: 0.25; minimal inhibitory concentration (MIC) [15]: 0.03; minimal inhibitory concentration (MIC) [16]: 0.125; minimal inhibitory concentration (MIC) [17]: 0.25; minimal inhibitory concentration (MIC) [18]: 0.25; minimal inhibitory concentration (MIC) [19]: 0.25; minimal inhibitory concentration (MIC) [20]: 0.25; minimal inhibitory concentration (MIC) [21]: 0.125
3 | CCC1OC(=O)CC(O)C(C)C(OC2OC(C)C(O)C(N(C)C)C2O)C(CC=O)CC(C)C(=O)C=CC(C)=CC1COC(=O)OC (stereo not shown) [Compound 74] | 0 | > 100 | 3 | 3.12 | 12.5 | 1.56 | 1.56 | 6.25 | 1.56 | 0.195 | 25 | < 0.048 | 12.5 | 1.56 | 0.39 | 0.78 | 0.5 | 2 | 1 | 0.5 | minimal inhibitory concentration (MIC) [14]: 0.25; minimal inhibitory concentration (MIC) [15]: 0.03; minimal inhibitory concentration (MIC) [16]: 0.25; minimal inhibitory concentration (MIC) [17]: 0.25; minimal inhibitory concentration (MIC) [18]: 0.25; minimal inhibitory concentration (MIC) [19]: 0.25; minimal inhibitory concentration (MIC) [20]: 0.25; minimal inhibitory concentration (MIC) [21]: 0.25
4 | CCC1OC(=O)CC(O)C(C)C(OC2OC(C)C(O)C(N(C)C)C2O)C(CC=O)CC(C)C(=O)C=CC(C)=CC1COC(=O)NCc1ccccc1 (stereo not shown) [Compound 76] | 100 | > 100 | 25 | 3.12 | 3.12 | 0.39 | 3.12 | 6.25 | 6.25 | < 0.048 | > 50 | 0.097 | 6.25 | 6.25 | 0.39 | 0.78 | 0.25 | 1 | 0.5 | 0.25 | minimal inhibitory concentration (MIC) [14]: 0.125; minimal inhibitory concentration (MIC) [15]: 0.015; minimal inhibitory concentration (MIC) [16]: 0.06; minimal inhibitory concentration (MIC) [17]: 0.125; minimal inhibitory concentration (MIC) [18]: 0.125; minimal inhibitory concentration (MIC) [19]: 0.125; minimal inhibitory concentration (MIC) [20]: 0.125; minimal inhibitory concentration (MIC) [21]: 0.125
